Results on 13 compounds are retold here after publication PMC10328974, “Molecular mechanism of plasmid-borne resistance to sulfonamide antibiotics” (Nature Communications, 2023).

Values after ≈ are worked out from the molar mass of the structure shown.

One test has as its target T1, EcDHPS (Escherichia coli, UniProt P0AC13, F190W/W92F).
T1 construct: gene folP; 1-282 amino acids
T1 sequence (P0AC13 1-282 W92F/F190W): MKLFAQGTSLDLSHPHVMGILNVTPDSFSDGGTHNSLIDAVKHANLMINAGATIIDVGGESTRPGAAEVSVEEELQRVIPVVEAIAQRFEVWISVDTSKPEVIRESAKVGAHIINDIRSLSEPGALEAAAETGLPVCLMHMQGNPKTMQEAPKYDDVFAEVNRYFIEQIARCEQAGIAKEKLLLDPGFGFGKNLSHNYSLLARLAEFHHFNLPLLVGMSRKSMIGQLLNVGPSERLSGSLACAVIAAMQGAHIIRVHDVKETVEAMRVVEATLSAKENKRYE
The test can be described thus: intrinsic tryptophan fluorescence titration. It counts as binding.
Conditions: not given
By Kd is commonly meant a measure of binding affinity in units of concentration. With `Nc1nc(O)c2c(n1)NCC(COP(=O)(O)OP(=O)(O)O)=N2` [DHPP, 6-hydroxymethyl-7,8-dihydropterin pyrophosphate], the Kd was found to be 8 µM. This lies in the single-digit micromolar range.

In another test the target is T2, EcDHPS (dihydropteroate synthase) (Escherichia coli, UniProt P0AC13).
T2 construct: gene folP
The test can be described thus: biochemical.
Conditions: not given
For `Cc1cc(NS(=O)(=O)c2ccc(N)cc2)no1` [SMX, sulfamethoxazole], the Ki came to 5.15 ± 1.1 µM.

The target of another test is T3, Sul3 (Escherichia coli, UniProt C0HMD9, F177G).
T3 sequence (C0HMD9 1-242 F177G): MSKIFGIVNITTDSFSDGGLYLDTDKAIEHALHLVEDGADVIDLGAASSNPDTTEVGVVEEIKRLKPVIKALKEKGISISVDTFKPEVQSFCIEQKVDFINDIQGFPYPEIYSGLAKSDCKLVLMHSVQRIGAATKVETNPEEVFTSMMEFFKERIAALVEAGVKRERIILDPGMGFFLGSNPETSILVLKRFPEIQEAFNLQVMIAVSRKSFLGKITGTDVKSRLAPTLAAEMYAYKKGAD
The test can be described thus: coupled malachite green DHPS activity assay, competition with pABA. The format is biochemical. As to conditions: read-out: Sulfa (SMX) / Ki.
For the compound `Cc1cc(NS(=O)(=O)c2ccc(N)cc2)no1` [SMX, sulfamethoxazole], the Ki is 4.16 ± 0.3 µM.

A further test concerns T4, WT E. coli BW25113.
T4 construct: BW25113
The test can be described thus: microbe, parasite or virus in culture. More on the design: agar dilution MIC on MHII agar, lowest concentration inhibiting bacterial growth. The conditions noted are these: Escherichia coli, BW25113, 18 h, read-out: MIC (ug/mL). How it is done: The susceptibilities of various E. coli strains to sulfonamide antibiotics were assessed using the agar dilution method[85] with the exception that MHII agar (Sigma) plates were used, as this agar is specifically formulated to have low levels of thymine and thymidine content, both of which are known to antagonize the action of sulfonamides. Antibiotics used were: sulfamethoxazole (SMX) (Sigma-Aldrich), 50 mg/mL in DMSO; sulfadiazine (SDZ) (Sigma-Aldrich), 100 mg/mL in 1 M NaOH; sulfanilamide (SAA) (Sigma-Aldrich), 50 mg/mL in acetone; sulfisoxazole (SOZ) (TCI America) 50 mg/mL on acetone; sulfathiazole (STZ) (Sigma-Aldrich) 50 mg/mL in acetone: sulfapyridine (SPY) (Sigma-Aldrich) 40 mg/mL in 0.5 M NaOH; sulfamerazine (SMRZ) (AK Scientific), 50 mg/mL in DMSO; sulfamethazine (SMZ) (Alfa Aesar), 50 mg/mL in DMSO; sulfameter (SMT) (Sigma-Aldrich) 100 mg/mL in DMSO; sulfacetamide (SAD) (Sigma-Aldrich) 100 mg/mL in DMSO; sulfaquinoxaline (SQX) (Sigma-Aldrich), 50 mg/mL in DMSO; sulfadimethoxine (SDT) (Sigma-Aldrich), 100 mg/m: in 1 N NaOH. Freshly streaked E. coli colonies were resuspended in sterile 0.9% NaCl solution and the turbidity of the suspension adjusted to that of a McFarland Standard of 0.5 using a Sensititre Nephelometer (Thermo Fisher Scientific) calibrated to a McFarland 0.5 BaSO4 standard. The bacterial suspension was diluted 1:10 into a well of a sterile 96-well microtitre plate by pipetting 10 μL into a well containing 90 μL of sterile saline. A 48-pin replicator with 1.5 mm pins was used to deliver the final inoculum of 1 μL (~10^4 […]) onto MHII agar plates containing various concentrations of either SMX, SDZ, SAA, SOZ STZ, SPY, SMRZ, SMZ, SMT, SAD, SQX, or SDT. […] Inoculated sulfa-agar plates were incubated 37 °C for 18 h and the minimum inhibitory concentration (MIC) was determined to be the lowest concentration of drug that inhibited bacterial growth. In all instances, a drug-free control plate was included to ensure bacterial growth. The ∆folP deletion strain, which is auxotrophic for thymidine
In the case of `COc1cnc(NS(=O)(=O)c2ccc(N)cc2)nc1` [SMT, sulfameter], the MIC was found to be 128 µg/mL (≈ 457 µM). Still for that read-out and setting: in the case of `Nc1ccc(S(=O)(=O)Nc2nccs2)cc1` [STZ, sulfathiazole] it was 16 µg/mL (≈ 62.7 µM).

For the compound `Nc1ccc(S(N)(=O)=O)cc1` [SAA, sulfanilamide], the MIC was found to be 2050 µg/mL (≈ 11900 µM). With `Cc1noc(NS(=O)(=O)c2ccc(N)cc2)c1C` [SOZ, sulfisoxazole], the MIC is 32 µg/mL (≈ 120 µM). With `Cc1ccnc(NS(=O)(=O)c2ccc(N)cc2)n1` [SMRZ, sulfamerazine], the MIC was 32 µg/mL (≈ 121 µM). Still for that read-out and setting: in the case of `Nc1ccc(S(=O)(=O)Nc2ncccn2)cc1` [SDZ, sulfadiazine] it was 32 µg/mL (≈ 128 µM); in that of `Cc1cc(C)nc(NS(=O)(=O)c2ccc(N)cc2)n1` [SMZ, sulfamethazine], 256 µg/mL (≈ 920 µM).

On to `COc1cc(NS(=O)(=O)c2ccc(N)cc2)nc(OC)n1` [SDT, sulfadimethoxine], for which the MIC came to 256 µg/mL (≈ 825 µM). Take `Nc1ccc(S(=O)(=O)Nc2ccccn2)cc1` [SPY, sulfapyridine]: the MIC was determined as 64 µg/mL (≈ 257 µM).

For the compound `CC(=O)NS(=O)(=O)c1ccc(N)cc1` [SAD, sulfacetamide], the MIC amounted to 512 µg/mL (≈ 2390 µM). Still for that read-out and setting: in the case of `Nc1ccc(S(=O)(=O)Nc2cnc3ccccc3n2)cc1` [SQX, sulfaquinoxaline] it was 512 µg/mL (≈ 1700 µM).

Take `Cc1cc(NS(=O)(=O)c2ccc(N)cc2)no1` [SMX, sulfamethoxazole]: the MIC turned out to be 16 µg/mL (≈ 63.2 µM).
